Here are results for 16 compounds from US11453683B1, “KRas G12D inhibitors” (Mirati Therapeutics, Inc., priority 2019, dated 2022).

This test concerns KRas G12D-mediated phosphorylation of ERK. Briefly: Inhibition of KRas G12D-mediated phosphorylation of ERK in AGS cells. The test is classed as cell-based. To be noted: Homo sapiens; AGS cells expressing G12D, 3 hours, phospho-ERK normalized to GAPDH. A digest of the protocol: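 In-cell Western: p-ERK Thr202/Tyr204 signal over GAPDH, as % of DMSO control, with IC50 from a 4-parameter curve. AGS cells seeded 40,000/well for 12-14 h, exposed to compound 3 h at 0.5% DMSO final, then formaldehyde-fixed and methanol-permeabilized.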

Where a name gives a salt, the structure may show the parent alone. Some results are limits rather than exact numbers.

With `N#CC[C@@H]1C[C@@H]2CN(c3nc(OCC45CCCN4CCC5)nc4c(F)c(-c5cc(O)cc6ccccc56)ncc34)C[C@H]1N2` [Example 338, 2-((1R,5S,6S)-3-(8-fluoro-7-(3-hydroxynaphthalen-1-yl)-2-((tetrahydro-1H-pyrrolizin-7a(5H)-yl)methoxy)pyrido[4,3-d]pyrimidin-4-yl)-3,8-diazabicyclo[3.2.1]octan-6-yl)acetonitrile], the IC50 (usually the concentration needed to halve the response being measured) is more than 16.7 µM. The figure for `Cc1cccc(-c2ncc3c(N4C[C@H]5CC[C@@H](C4)N5)nc(OCC45CCCN4CCC5)nc3c2F)c1C(C)C` [Example 301, 4-((1R,5S)-3,8-diazabicyclo[3.2.1]octan-3-yl)-8-fluoro-2-((hexahydro-1H-pyrrolizin-7a-yl)methoxy)-7-(2-isopropyl-3-methylphenyl)pyrido[4,3-d]pyrimidine] is 3.17 µM. As for `C#Cc1c(F)ccc2cccc(-c3ncc4c(N5C[C@H]6CC[C@@H](C5)N6)nc(OC[C@]56CCCN5[C@@H](COC(=O)N(C)C)CC6)nc4c3F)c12` [Example 439, ((3R,7aR)-7a-(((4-((1R,5S)-3,8-diazabicyclo[3.2.1]octan-3-yl)-7-(8-ethynyl-7-fluoronaphthalen-1-yl)-8-fluoropyrido[4,3-d]pyrimidin-2-yl)oxy)methyl)hexahydro-1H-pyrrolizin-3-yl)methyl dimethylcarbamate], the figure is 0.0128 µM. As for `OCc1cccc2cccc(-c3ncc4c(N5C[C@H]6CC[C@@H](C5)N6)nc(OCC56CCCN5CCC6)nc4c3F)c12` [Example 238, (8-(4-((1R,5S)-3,8-diazabicyclo[3.2.1]octan-3-yl)-8-fluoro-2-((tetrahydro-1H-pyrrolizin-7a(5H)-yl)methoxy)pyrido[4,3-d]pyrimidin-7-yl)naphthalen-1-yl)methanol], the figure is 4.66 µM. `CC(C)c1ccc(O)cc1-c1ncc2c(N3CC4CCC(C3)N4)nc(OC[C@@]34CCCN3C[C@H](F)C4)nc2c1F` (stereo in doubt) [Example 399, 3-(4-((1R,5S)-3,8-diazabicyclo[3.2.1]octan-3-yl)-8-fluoro-2-((2-fluorotetrahydro-1H-pyrrolizin-7a(5H)-yl)methoxy)pyrido[4,3-d]pyrimidin-7-yl)-4-isopropylphenol] came in with a concentration for half-maximal inhibition (IC50) of 0.51 µM. As for `CC1(C)CN2C[C@H](F)CC2(COc2nc(N3CC4CCC(C3)N4)c3cnc(-c4cccc5cccc(Cl)c45)c(F)c3n2)C1` (mixture of isomers) [Example 325, 4-((1R,5S)-3,8-diazabicyclo[3.2.1]octan-3-yl)-7-(8-chloronaphthalen-1-yl)-8-fluoro-2-((6-fluoro-2,2-dimethyltetrahydro-1H-pyrrolizin-7a(5H)-yl)methoxy)pyrido[4,3-d]pyrimidine], the figure is more than 16.7 µM; as for `Cn1cc([C@H]2CN3CCC[C@]3(COc3nc(N4CC5CCC(C4)N5)c4cnc(-c5cccc6cccc(Cl)c56)c(F)c4n3)C2)cn1` (stereo in doubt) [Example 220, 4-((1R,5S)-3,8-diazabicyclo[3.2.1]octan-3-yl)-7-(8-chloronaphthalen-1-yl)-8-fluoro-2-((2-(1-methyl-1H-pyrazol-4-yl)tetrahydro-1H-pyrrolizin-7a(5H)-yl)methoxy)pyrido[4,3-d]pyrimidine tris-hydrochloride salt], 1.34 µM. The figure for `CO[C@@H]1CN2CCC[C@]2(COc2nc(N3C[C@H]4CC[C@@H](C3)N4)c3cnc(-c4cccc5cccc(Cl)c45)c(F)c3n2)C1` [Example 219, 4-((1R,5S)-3,8-diazabicyclo[3.2.1]octan-3-yl)-7-(8-chloronaphthalen-1-yl)-8-fluoro-2-((2-methoxytetrahydro-1H-pyrrolizin-7a(5H)-yl)methoxy)pyrido[4,3-d]pyrimidine bis-hydrochloride] is 2.03 µM; for `Oc1cc(-c2ncc3c(N4C[C@H]5CC[C@@H](C4)N5)nc(OCC45CCCN4CCC5)nc3c2F)c2c(Cl)cccc2c1` [Example 36, 4-(4-((1R,5S)-3,8-diazabicyclo[3.2.1]octan-3-yl)-8-fluoro-2-((tetrahydro-1H-pyrrolizin-7a(5H)-yl)methoxy)pyrido[4,3-d]pyrimidin-7-yl)-5-chloronaphthalen-2-ol] it is 0.108 µM; for `Oc1cc(-c2ncc3c(N4C[C@H]5CC[C@@H](C4)N5)nc(OCC45CCCN4CCC5)nc3c2F)c2ccccc2c1` [Example 109, 4-(4-((1R,5S)-3,8-diazabicyclo[3.2.1]octan-3-yl)-8-fluoro-2-((tetrahydro-1H-pyrrolizin-7a(5H)-yl)methoxy)pyrido[4,3-d]pyrimidin-7-yl)naphthalen-2-ol bis(2,2,2-trifluoroacetate)] it is 0.331 µM. The figure for `Fc1c(-c2c(C(F)(F)F)ccc3[nH]ncc23)ncc2c(N3CC4CCC(C3)N4)nc(OCC34CCCN3C[C@H](F)C4)nc12` (mixture of isomers) [Example 343, 4-((1R,5S)-3,8-diazabicyclo[3.2.1]octan-3-yl)-8-fluoro-2-((2-fluorotetrahydro-1H-pyrrolizin-7a(5H)-yl)methoxy)-7-(5-(trifluoromethyl)-1H-indazol-4-yl)pyrido[4,3-d]pyrimidine] is 1.62 µM; for `C[C@H]1CN2CCC[C@@]2(COc2nc(N3CC4CCC(C3)N4)c3cnc(-c4cccc5cccc(Cl)c45)c(F)c3n2)C1` (stereo in doubt) [Example 227, 4-((1R,5S)-3,8-diazabicyclo[3.2.1]octan-3-yl)-7-(8-chloronaphthalen-1-yl)-8-fluoro-2-((2-methyltetrahydro-1H-pyrrolizin-7a(5H)-yl)methoxy)pyrido[4,3-d]pyrimidine bis-hydrochloride] it is 2.98 µM; for `Oc1cc(-c2ncc3c(N4C[C@H]5CC[C@@H](C4)N5)nc(OCCC(F)(F)F)nc3c2F)c2c(Cl)cccc2c1` [Example 393, 4-(4-((1R,5S)-3,8-diazabicyclo[3.2.1]octan-3-yl)-8-fluoro-2-(3,3,3-trifluoropropoxy)pyrido[4,3-d]pyrimidin-7-yl)-5-chloronaphthalen-2-ol] it is 7.58 µM.

As for `Fc1c(-c2c3ccccc3cc3[nH]ncc23)ncc2c(N3C[C@H]4CC[C@@H](C3)N4)nc(OCC34CCCN3CCC4)nc12` [Example 257, 4-(4-((1R,5S)-3,8-diazabicyclo[3.2.1]octan-3-yl)-8-fluoro-2-((hexahydro-1H-pyrrolizin-7a-yl)methoxy)pyrido[4,3-d]pyrimidin-7-yl)-1H-benzo[f]indazole], the IC50 is 0.531 µM. The figure for `Cn1cncc1CCOc1nc(N2C[C@H]3CC[C@@H](C2)N3)c2cnc(-c3cc(O)cc4ccccc34)c(F)c2n1` [Example 110, 4-(4-((1R,5S)-3,8-diazabicyclo[3.2.1]octan-3-yl)-8-fluoro-2-(2-(1-methyl-1H-imidazol-5-yl)ethoxy)pyrido[4,3-d]pyrimidin-7-yl)naphthalen-2-ol] is more than 16.7 µM.

In the case of `CC1CCc2cccc(-c3ncc4c(N5CC6CCC(C5)N6)nc(OC[C@@]56CCCN5C[C@H](F)C6)nc4c3F)c21` (stereo partly drawn) [Example 429, 4-(3,8-diazabicyclo[3.2.1]octan-3-yl)-8-fluoro-2-(((2R,7aS)-2-fluorotetrahydro-1H-pyrrolizin-7a(5H)-yl)methoxy)-7-(3-methyl-2,3-dihydro-1H-inden-4-yl)pyrido[4,3-d]pyrimidine], the IC50 was determined as 1.7 µM.
